The values below come from US9738655B2, “Tetrahydroisoquinolines containing substituted azoles as factor XIa inhibitors” (BRISTOL-MYERS SQUIBB COMPANY, priority 2013, dated 2017).

Counter-ions that a name gives are not always drawn. Like-named read-outs stand apart in the source and are kept apart here.

This assay concerns the target purified human Factor XIa (Homo sapiens (Human), UniProt P03951). Nature of the assay: Factor XIa enzyme inhibition assay (chromogenic substrate S-2366). The settings on record: read-out: Factor XIa Ki, measured at 25° C.

purified human Factor XIa, sequence (P03951 388-625): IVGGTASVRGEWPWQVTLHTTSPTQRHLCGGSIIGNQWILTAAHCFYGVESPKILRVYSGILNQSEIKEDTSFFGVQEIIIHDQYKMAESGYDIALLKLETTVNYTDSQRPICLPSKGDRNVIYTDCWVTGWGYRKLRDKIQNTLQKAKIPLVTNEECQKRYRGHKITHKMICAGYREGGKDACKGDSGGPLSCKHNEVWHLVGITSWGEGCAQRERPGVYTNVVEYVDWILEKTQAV
purified human Factor XIa, sequence (P03951 19-387 partner): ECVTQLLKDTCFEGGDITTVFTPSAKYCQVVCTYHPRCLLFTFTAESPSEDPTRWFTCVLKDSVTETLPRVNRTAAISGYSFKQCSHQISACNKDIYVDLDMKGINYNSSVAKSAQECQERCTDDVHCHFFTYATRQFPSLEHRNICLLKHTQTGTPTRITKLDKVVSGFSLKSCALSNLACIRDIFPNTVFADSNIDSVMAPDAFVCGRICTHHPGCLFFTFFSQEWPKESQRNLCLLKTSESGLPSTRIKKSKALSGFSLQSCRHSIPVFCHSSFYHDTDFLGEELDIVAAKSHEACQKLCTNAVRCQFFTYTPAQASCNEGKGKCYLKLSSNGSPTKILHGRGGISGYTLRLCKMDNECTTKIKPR
Description: The effectiveness of compounds of the present invention as inhibitors of the coagulation Factors XIa, VIIa, IXa, Xa, XIIa, plasma kallikrein or thrombin, can be determined using a relevant purified serine protease, respectively, and an appropriate synthetic substrate. The rate of hydrolysis of the chromogenic or fluorogenic substrate by the relevant serine protease was measured both in the absence and presence of compounds of the present invention. […] A decrease in the rate of absorbance or fluorescence change in the presence of inhibitor is indicative of enzyme inhibition. […] The results of this assay are expressed as the inhibitory constant, Ki.
Values of Ki were determined by allowing the protease to react with the substrate in the presence of the inhibitor.

Turning to `CCOc1ccc(-c2cccc3c2CCN(C(=O)c2cn(-c4cccc(Cl)c4F)nn2)C3C(=O)Nc2ccc(C(=O)O)cc2)cn1` (stereo not drawn) [Example 178, 4-(2-(1-(3-chloro-2-fluorophenyl)-1H-1,2,3-triazole-4-carbonyl)-5-(6-ethoxypyridin-3-yl)-1,2,3,4-tetrahydroisoquinoline-1-carboxamido)benzoic acid, TFA salt], the Ki – broadly, a measure of affinity in units of concentration, obtained from inhibition or displacement – is below 5 nM.
The same measure, in the same setting: with `CN(C)c1ncc(-c2cccc3c2CCN(C(=O)c2cn(-c4cccc(Cl)c4F)nn2)C3C(=O)Nc2ccc(C(=O)O)cc2)cn1` (stereo not drawn) [Example 183, 4-(2-(1-(3-chloro-2-fluorophenyl)-1H-1,2,3-triazole-4-carbonyl)-5-(2-(dimethylamino)pyrimidin-5-yl)-1,2,3,4-tetrahydroisoquinoline-1-carboxamido)benzoic acid] the figure was below 5 nM; with `O=C(O)c1ccc(NC(=O)C2c3cccc(-c4ccncc4)c3CCN2C(=O)c2cn(-c3cccc(Cl)c3F)nn2)cc1` (stereo not drawn) [Example 186, 4-(2-(1-(3-chloro-2-fluorophenyl)-1H-1,2,3-triazole-4-carbonyl)-5-(pyridin-4-yl)-1,2,3,4-tetrahydroisoquinoline-1-carboxamido)benzoic acid, TFA salt], below 5 nM.
Regarding `COC1CCN(c2cccc3c2CCN(C(=O)C2CCN(c4cccc(Cl)c4)C2)C3C(=O)Nc2ccc(C(=O)O)cc2)CC1` (stereo not drawn) [Example 258, 4-(2-(1-(3-chlorophenyl)pyrrolidine-3-carbonyl)-5-(4-methoxypiperidin-1-yl)-1,2,3,4-tetrahydroisoquinoline-1-carboxamido)benzoic acid, TFA salt], where the note is “TFA salt”, the Ki was found to be 127 nM.
As to `NCc1ccc(-c2cccc3c2CCN(C(=O)c2cn(-c4cccc(Cl)c4F)nn2)C3C(=O)Nc2ccc(C(=O)O)cc2)cc1` (stereo not drawn) [Example 163, 4-(5-(4-(aminomethyl)phenyl)-2-(1-(3-chloro-2-fluorophenyl)-1H-1,2,3-triazole-4-carbonyl)-1,2,3,4-tetrahydroisoquinoline-1-carboxamido)benzoic acid, TFA salt], the Ki was below 5 nM.
Same read-out and setting: with `CN(C)c1ccc(-c2cccc3c2CCN(C(=O)c2cn(-c4cccc(Cl)c4F)nn2)C3C(=O)Nc2ccc(C(=O)O)cc2)cn1` (stereo not drawn) [Example 172, 4-(2-(1-(3-chloro-2-fluorophenyl)-1H-1,2,3-triazole-4-carbonyl)-5-(6-(dimethylamino)pyridin-3-yl)-1,2,3,4-tetrahydroisoquinoline-1-carboxamido)benzoic acid] the figure was below 5 nM.
Still for that read-out and setting: with `CN1CCC(=O)N(c2cccc3c2CCN(C(=O)c2cnn(-c4cccc(Cl)c4F)c2)C3C(=O)Nc2ccc(C(=O)O)cc2)CC1` (stereo not drawn) [Example 70, 4-(2-(1-(3-chloro-2-fluorophenyl)-1H-pyrazole-4-carbonyl)-5-(4-methyl-7-oxo-1,4-diazepan-1-yl)-1,2,3,4-tetrahydroisoquinoline-1-carboxamido)benzoic acid, TFA salt] the figure was 29.3 nM; with `CN(C)S(=O)(=O)c1cccc(-c2cccc3c2CCN(C(=O)c2cn(-c4cccc(Cl)c4F)nn2)C3C(=O)Nc2ccc(C(=O)O)cc2)c1` (stereo not drawn) [Example 177, 4-(2-(1-(3-chloro-2-fluorophenyl)-1H-1,2,3-triazole-4-carbonyl)-5-(3-(N,N-dimethylsulfamoyl)phenyl)-1,2,3,4-tetrahydroisoquinoline-1-carboxamido)benzoic acid], below 5 nM; with `O=C(O)c1ccc(NC(=O)C2c3cccc(N4CCC(N5CCCC5)CC4)c3CCN2C(=O)c2cn(-c3cccc(Cl)c3F)nn2)cc1` (stereo not drawn) [Example 210, 4-(2-(1-(3-chloro-2-fluorophenyl)-1H-1,2,3-triazole-4-carbonyl)-5-(4-(pyrrolidin-1-yl)piperidin-1-yl)-1,2,3,4-tetrahydroisoquinoline-1-carboxamido)benzoic acid, 2 TFA salt], below 5 nM.
Regarding `Cc1nnc(-c2cccc(-c3cccc4c3CCN(C(=O)c3cn(-c5cccc(Cl)c5F)nn3)C4C(=O)Nc3ccc(C(=O)O)cc3)c2)o1` (stereo not drawn) [Example 171, 4-(2-(1-(3-chloro-2-fluorophenyl)-1H-1,2,3-triazole-4-carbonyl)-5-(3-(5-methyl-1,3,4-oxadiazol-2-yl)phenyl)-1,2,3,4-tetrahydroisoquinoline-1-carboxamido)benzoic acid], the Ki was below 5 nM.
Still for that read-out and setting: under `COC1CCN(c2cccc3c2CCN(C(=O)c2cc(-c4cccc(F)c4)no2)C3C(=O)Nc2ccc(C(=O)O)cc2)CC1` (stereo not drawn) [Example 152, 4-(2-(3-(3-fluorophenyl)isoxazole-5-carbonyl)-5-(4-methoxypiperidin-1-yl)-1,2,3,4-tetrahydroisoquinoline-1-carboxamido)benzoic acid, TFA salt] stands 466 nM; under `O=C(O)c1ccc(NC(=O)C2c3cccc(-c4cnc5[nH]ccc5c4)c3CCN2C(=O)c2cn(-c3cccc(Cl)c3F)nn2)cc1` (stereo not drawn) [Example 181, 4-(2-(1-(3-chloro-2-fluorophenyl)-1H-1,2,3-triazole-4-carbonyl)-5-(1H-pyrrolo[2,3-b]pyridin-5-yl)-1,2,3,4-tetrahydroisoquinoline-1-carboxamido)benzoic acid, TFA salt], below 5 nM.
The same measure, in the same setting: under `NC(=O)Cc1cccc(-c2cccc3c2CCN(C(=O)c2cn(-c4cccc(Cl)c4F)nn2)C3C(=O)Nc2ccc(C(=O)O)cc2)c1` (stereo not drawn) [Example 188, 4-(5-(3-(2-amino-2-oxoethyl)phenyl)-2-(1-(3-chloro-2-fluorophenyl)-1H-1,2,3-triazole-4-carbonyl)-1,2,3,4-tetrahydroisoquinoline-1-carboxamido)benzoic acid] stands below 5 nM; under `Nc1c(C(=O)N2CCc3c(-c4cncnc4)cccc3C2C(=O)Nc2ccc(C(=O)O)cc2)cnn1-c1cccc(Cl)c1F` (stereo not drawn) [Example 46, 4-(2-(5-Amino-1-(3-chloro-2-fluorophenyl)-1H-pyrazole-4-carbonyl)-5-(pyrimidin-5-yl)-1,2,3,4-tetrahydroisoquinoline-1-carboxamido)benzoic acid, TFA salt], below 5 nM.
Take `CNC(=O)c1ccc(-c2cccc3c2CCN(C(=O)c2cnn(-c4cccc(Cl)c4F)c2N)C3C(=O)Nc2ccc(C(=O)O)cc2)cn1` (stereo not drawn) [Example 47, 4-(2-(5-Amino-1-(3-chloro-2-fluorophenyl)-1H-pyrazole-4-carbonyl)-5-(6-(methylcarbamoyl)pyridin-3-yl)-1,2,3,4-tetrahydroisoquinoline-1-carboxamido)benzoic acid, TFA salt]: the Ki is below 5 nM.
Same read-out and setting: with `O=C(O)c1ccc(NC(=O)C2c3cccc(C4=CCOCC4)c3CCN2C(=O)c2cn(-c3cccc(Cl)c3F)nn2)cc1` (stereo not drawn) [Example 165, 4-(2-(1-(3-chloro-2-fluorophenyl)-1H-1,2,3-triazole-4-carbonyl)-5-(3,6-dihydro-2H-pyran-4-yl)-1,2,3,4-tetrahydroisoquinoline-1-carboxamido)benzoic acid] the figure was below 5 nM.
Take `O=C(O)c1ccc(NC(=O)C2c3cccc(-c4ccc(F)c(C(=O)N5CCCC5)c4)c3CCN2C(=O)c2cn(-c3cccc(Cl)c3F)nn2)cc1` (stereo not drawn) [Example 184, 4-(2-(1-(3-chloro-2-fluorophenyl)-1H-1,2,3-triazole-4-carbonyl)-5-(4-fluoro-3-(pyrrolidine-1-carbonyl)phenyl)-1,2,3,4-tetrahydroisoquinoline-1-carboxamido)benzoic acid]: the Ki was below 5 nM.
Turning to `O=C(O)c1ccc(NC(=O)C2c3cccc(NCCO)c3CCN2C(=O)c2cn(-c3cccc(Cl)c3F)nn2)cc1` (stereo not drawn) [Example 111, 4-(2-(1-(3-Chloro-2-fluorophenyl)-1H-1,2,3-triazole-4-carbonyl)-5-((2-hydroxyethyl)amino)-1,2,3,4-tetrahydroisoquinoline-1-carboxamido)benzoic acid, TFA salt], the Ki turned out to be 6.04 nM.
On the same count and under the same terms, under `O=C(O)c1ccc(NC(=O)C2c3cccc(C4=CCNCC4)c3CCN2C(=O)c2cn(-c3cccc(Cl)c3F)nn2)cc1` (stereo not drawn) [Example 187, 4-(2-(1-(3-chloro-2-fluorophenyl)-1H-1,2,3-triazole-4-carbonyl)-5-(1,2,3,6-tetrahydropyridin-4-yl)-1,2,3,4-tetrahydroisoquinoline-1-carboxamido)benzoic acid] stands below 5 nM.
As to `O=C(O)c1ccc(NC(=O)C2c3cccc(N4CCC(O)CC4)c3CCN2C(=O)c2cn(-c3cccc(Cl)c3F)nn2)cc1` (stereo not drawn) [Example 85, 4-(2-(1-(3-chloro-2-fluorophenyl)-1H-1,2,3-triazole-4-carbonyl)-5-(4-hydroxypiperidin-1-yl)-1,2,3,4-tetrahydroisoquinoline-1-carboxamido)benzoic acid, TFA salt], the Ki was below 5 nM.
Same read-out and setting: with `O=C(O)c1ccc(NC(=O)C2c3cccc(-c4ccccc4CN4CCOCC4)c3CCN2C(=O)c2cn(-c3cccc(Cl)c3F)nn2)cc1` (stereo not drawn) [Example 179, 4-(2-(1-(3-chloro-2-fluorophenyl)-1H-1,2,3-triazole-4-carbonyl)-5-(2-(morpholinomethyl)phenyl)-1,2,3,4-tetrahydroisoquinoline-1-carboxamido)benzoic acid, TFA salt] the figure was 5.92 nM.
The same measure, in the same setting: under `COC1CCN(c2cccc3c2CCN(C(=O)c2sc(-c4cccnc4)nc2C)C3C(=O)Nc2ccc(C(=O)O)cc2)CC1` (stereo not drawn) [Example 146, 4-(5-(4-methoxypiperidin-1-yl)-2-(4-methyl-2-(pyridin-3-yl)thiazole-5-carbonyl)-1,2,3,4-tetrahydroisoquinoline-1-carboxamido)benzoic acid, 2 TFA salt] stands 1200 nM; under `N#Cc1ccc(-c2cccc3c2CCN(C(=O)c2cn(-c4cccc(Cl)c4F)nn2)C3C(=O)Nc2ccc(C(=O)O)cc2)cn1` (stereo not drawn) [Example 182, 4-(2-(1-(3-chloro-2-fluorophenyl)-1H-1,2,3-triazole-4-carbonyl)-5-(6-cyanopyridin-3-yl)-1,2,3,4-tetrahydroisoquinoline-1-carboxamido)benzoic acid, TFA salt], below 5 nM.
On the same count and under the same terms, under `O=C(O)c1ccc(NC(=O)[C@@H]2c3cccc(N4CCN(C5COC5)CC4)c3CCN2C(=O)[C@H]2CC(c3cccc(Cl)c3F)=NO2)cc1` [Example 227, 4-((S)-2-((R)-3-(3-Chloro-2-fluorophenyl)-4,5-dihydroisoxazole-5-carbonyl)-5-(4-(oxetan-3-yl)piperazin-1-yl)-1,2,3,4-tetrahydroisoquinoline-1-carboxamido)benzoic acid, 2 TFA salt] stands below 5 nM.
